Measurements taken from PubChem BioAssay (NCI).
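Dose response: 5 concentrations. Exposure: 48 h. Format: 96-well plates. Endpoint: linear interpolation; highest concentration if not reached. Abbreviation: GI50, concentration required for 50% inhibition of growth. TGI is the concentration that stops growth completely.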

How the values were obtained:
Test in all cases: DTP human tumour cell line panel, 48 h
[1] = system: 786-0 renal
[2] = system: A498 renal
[3] = system: A549 NSCLC
[4] = system: ACHN renal
[5] = system: BT-549 breast
[6] = system: CAKI-1 renal
[7] = system: CCRF-CEM leukemia
[8] = system: COLO 205 colon
[9] = system: DU-145 prostate
[10] = system: EKVX NSCLC
[11] = system: HCC-2998 colon
[12] = system: HCT-116 colon
[13] = system: HCT-15 colon
[14] = system: HL-60(TB) leukemia
[15] = system: HOP-62 NSCLC
[16] = system: HOP-92 NSCLC
[17] = system: HS 578T breast
[18] = system: HT29 colon
[19] = system: IGROV1 ovarian
[20] = system: K-562 leukemia
[21] = system: KM12 colon
[22] = system: LOX IMVI melanoma
[23] = system: M14 melanoma
[24] = system: MALME-3M melanoma
[25] = system: MCF7 breast
[26] = system: MDA-MB-231 breast
[27] = system: MDA-MB-435
[28] = system: MDA-MB-468 breast
[29] = system: MOLT-4 leukemia
[30] = system: NCI-H226 lung
[31] = system: NCI-H23 lung
[32] = system: NCI-H460 lung
[33] = system: NCI-H522 lung
[34] = system: NCI/ADR-RES ovarian
[35] = system: OVCAR-3 ovarian
[36] = system: OVCAR-4 ovarian
[37] = system: OVCAR-5 ovarian
[38] = system: OVCAR-8 ovarian
[39] = system: PC-3 prostate
[40] = system: RPMI-8226 leukemia
[41] = system: RXF 393 renal
[42] = system: SF-268 CNS
[43] = system: SF-295 CNS
[44] = system: SF-539 CNS
[45] = system: SK-MEL-2 melanoma
[46] = system: SK-MEL-28 melanoma
[47] = system: SK-MEL-5 melanoma
[48] = system: SK-OV-3 ovarian
[49] = system: SN12C renal
[50] = system: SNB-19 CNS
[51] = system: SNB-75 CNS
[52] = system: SW-620 colon
[53] = system: T-47D breast
[54] = system: TK-10 renal
[55] = system: U251 CNS
[56] = system: UACC-257 melanoma
[57] = system: UACC-62 melanoma
[58] = system: UO-31 renal

`COc1ccc(-c2nc3cc(C)ccc3n2CC(=O)N=Nc2c(O)[nH]c3ccccc23)cc1` showed a GI50 [1] of 12.7 µM, a TGI [1] of 26 µM and a GI50 [2] of 11.8 µM. The TGI [2] was 25.7 µM, the GI50 [3] was 1.88 µM and the TGI [3] was 4.02 µM. For the same molecule, the GI50 [4] was 3.03 µM, the TGI [4] was 11.9 µM and the GI50 [5] was 1.77 µM. It also gave a TGI [5] of 4.98 µM, a GI50 [6] of 2.86 µM and a TGI [6] of 11.6 µM. For the same molecule, the GI50 [7] was 3.54 µM, the TGI [7] was 17.4 µM and the GI50 [8] was 3.73 µM. The TGI [8] was 14 µM, the GI50 [9] was 3.57 µM and the TGI [9] was 14 µM. The GI50 [10] was 3.67 µM, the TGI [10] was 15.5 µM and the GI50 [11] was 13.1 µM. For the same molecule, the TGI [11] was 26.1 µM, the GI50 [12] was 1.86 µM and the TGI [12] was 3.71 µM. The GI50 [13] was 3.66 µM, the TGI [13] was 14.5 µM and the GI50 [14] was 5.5 µM. The TGI [14] was 29.2 µM, the GI50 [15] was 3.7 µM and the TGI [15] was 18.2 µM. For the same molecule, the GI50 [16] was 1.94 µM, the TGI [16] was 6.3 µM and the GI50 [17] was 2.27 µM. The TGI [17] was 7.12 µM, the GI50 [18] was 1.82 µM and the TGI [18] was 3.52 µM. It also gave a GI50 [19] of 11.9 µM, a TGI [19] of 25 µM and a GI50 [20] of 3.23 µM. It also gave a TGI [20] of 43.5 µM, a GI50 [21] of 3.96 µM and a TGI [21] of 16 µM. For the same molecule, the GI50 [22] was 6.32 µM, the TGI [22] was 20.8 µM and the GI50 [23] was 2.31 µM. For the same molecule, the TGI [23] was 5.4 µM, the GI50 [24] was 2.17 µM and the TGI [24] was 4.42 µM. For the same molecule, the GI50 [25] was 2.17 µM, the TGI [25] was 5.7 µM and the GI50 [26] was 2.06 µM. The TGI [26] was 4.64 µM, the GI50 [27] was 2.47 µM and the TGI [27] was 6.24 µM. For the same molecule, the GI50 [28] was 2.26 µM, the TGI [28] was 5.87 µM and the GI50 [29] was 3.65 µM. The TGI [29] was 15.8 µM, the GI50 [30] was 1.88 µM and the TGI [30] was 4.13 µM. It also gave a GI50 [31] of 4.15 µM, a TGI [31] of 15.8 µM and a GI50 [32] of 2.17 µM. For the same molecule, the TGI [32] was 4.87 µM, the GI50 [33] was 4.68 µM and the TGI [33] was 19.5 µM. The GI50 [34] was 2.58 µM, the TGI [34] was 6.66 µM and the GI50 [35] was 1.85 µM. For the same molecule, the TGI [35] was 4.14 µM, the GI50 [36] was 2.17 µM and the TGI [36] was 5.41 µM. It also gave a GI50 [37] of 2.4 µM, a TGI [37] of 8.1 µM and a GI50 [38] of 2.19 µM. The TGI [38] was 4.87 µM, the GI50 [39] was 2.42 µM and the TGI [39] was 7.01 µM. It also gave a GI50 [40] of 6.69 µM, a TGI [40] of 28.8 µM and a GI50 [41] of 1.55 µM. The TGI [41] was 3.71 µM, the GI50 [42] was 2.52 µM and the TGI [42] was 9.61 µM. It also gave a GI50 [43] of 5.4 µM, a TGI [43] of 18.8 µM and a GI50 [44] of 1.67 µM. It also gave a TGI [44] of 3.08 µM, a GI50 [45] of 10.3 µM and a TGI [45] of 23.5 µM. It also gave a GI50 [46] of 1.71 µM, a TGI [46] of 3.26 µM and a GI50 [47] of 2.61 µM. The TGI [47] was 10.6 µM, the GI50 [48] was 2.32 µM and the TGI [48] was 6.06 µM. The GI50 [49] was 1.71 µM, the TGI [49] was 3.83 µM and the GI50 [50] was 4.11 µM. For the same molecule, the TGI [50] was 15.3 µM, the GI50 [51] was 1.55 µM and the TGI [51] was 4.33 µM. It also gave a GI50 [52] of 3.03 µM, a TGI [52] of 16.3 µM and a GI50 [53] of 3.15 µM. It also gave a TGI [53] of 17.8 µM, a GI50 [54] of 10.5 µM and a TGI [54] of 23.7 µM. For the same molecule, the GI50 [55] was 2.86 µM, the TGI [55] was 9.2 µM and the GI50 [56] was 2.38 µM. The TGI [56] was 6.76 µM, the GI50 [57] was 2.14 µM and the TGI [57] was 6.96 µM. The GI50 [58] was 12.2 µM and the TGI [58] was 24.8 µM.
